In patent publication US10000765B2, “Gene encoding cytochrome P450, and use thereof” (NATIONAL INSTITUTE OF AGROBIOLOGICAL SCIENCES, priority 2011, dated 2018):

How the values were obtained:
[1] = tested on: Arabidopsis thaliana (K31-4-2) transformed with a Kasalath-derived CYP72A31 gene; experiment: Drug sensitivity test on drug-containing MS medium, Arabidopsis thaliana transformed with Kasalath-derived CYP72A31 gene; type: in vivo; details: for Rate of emerging of true leaf (%): day 14 after seeding
Procedure: (§1) A bag of mixed salts for Murashige-Skoog (MS) medium (manufactured by Wako Pure Chemical Industries, Ltd.) 20 g of sucrose, 3 mg of thiamin hydrochloride, 5 mg of nicotinic acid, and 0.5 mg of pyridoxine hydrochloride were dissolved in distilled water, and filled up to 1 L with distilled water. After pH adjustment to 5.8 to 6.3 with 1 M KOH, 3 g of Gelrite was added to the solution, and dissolved using a microwave. After that, the mixture was autoclaved to prepare a sterile MS medium. A test drug was added to this sterile MS medium so as to make a final concentration of 1.3, 4.1, 12, 37, 110, or 330 nM. Arabidopsis thaliana from a sterilized seed was seeded in the drug-containing MS medium, and cultivated at 22° C. for 12 to 14 days in a continuous light period.
(§2) Note that the drugs used in this Example were bispyribac-sodium, pyrithiobac-sodium, pyriminobac, bensulfuron-methyl, penoxsulam, pyrazosulfuron-ethyl, amidosulfuron, imazosulfuron, nicosulfuron, and propyrisulfuron.

[2] = tested on: non-transformed Arabidopsis thaliana (NT); experiment: Drug sensitivity test on drug-containing MS medium, non-transformed Arabidopsis thaliana; type: in vivo
Procedure: as §1, §2

[3] = tested on: CYP72A31-overexpressing rice (K31-4-6-2); experiment: Drug sensitivity test on gellan gum medium, CYP72A31-overexpressing rice; type: in vivo, Oryza sativa; details: for CK ratio (%): plant height compared with drug-free medium
Procedure: (§3) Next, 1.6 g of Hoagland's mix (Sigma-Aldrich Corporation) and 3 g of Gelrite (Wako Pure Chemical Industries, Ltd.) were suspended in 1 L of distilled water. Then, the mixture was dissolved and heated in a microwave. After that, the mixture was cooled to 50 to 60 degree C., and BS was added at a final concentration of 1 μM. This mixture was dispensed into 30-mL tubular bottles at 15 mL to prepare a gellan gum medium. Next, CSSL rice paddies were soaked in 0.5% sodium hypochlorite for about 20 minutes, and were then washed well with water. These paddies were soaked in distilled water, and kept at 27 degree C. for 3 to 5 days for germination. Germinating seeds were softly planted in sprout-side up on the gellan gum medium. These samples, together with a beaker filled with distilled water, were placed in a transparent case, which was then covered with a clear-plastic wrap. These samples were grown at 27 degree C. under fluorescent light illumination (14 hours of a light period and 10 hours of a dark period) for 7 to 9 days.
(§4) According to the method of Example 1, a gellan gum medium containing a test drug at a concentration of 0.01, 0.1, 1, or 10 μM was prepared. Rice seeds were sterilized, germinated, seeded in the medium, and cultivated.

[4] = tested on: Wild-type rice (Nipponbare); experiment: Drug sensitivity test on gellan gum medium, wild-type rice; type: in vivo, Oryza sativa; details: plant height compared with drug-free medium
Procedure: as §3, §4

[5] = K31-4-2, Tables 2 and 3, FIGS. 20 to 24
[6] = maximum drug concentration for 80% or more emerging of true leaves, K31-4-2 / NT, day 14
[7] = drug 1.3 nM, day 14 after seeding
[8] = drug 4.1 nM, day 14 after seeding
[9] = drug 12 nM, day 14 after seeding
[10] = drug 37 nM, day 14 after seeding
[11] = drug 110 nM, day 14 after seeding
[12] = drug 330 nM, day 14 after seeding

| SMILES | Ratio of sensitivity ([1]; in vivo) | Resistance of transformed Arabidopsis thaliana to the drug ([1]; in vivo) | Resistance of transformed Arabidopsis thaliana to the drug [1, 5] | Rate of emerging of true leaf (%) ([1]; K31-4-2, drug 1.3 nM) | Rate of emerging of true leaf (%) ([1]; K31-4-2, drug 4.1 nM) | Rate of emerging of true leaf (%) ([1]; K31-4-2, drug 12 nM) | Rate of emerging of true leaf (%) ([1]; K31-4-2, drug 37 nM) | Rate of emerging of true leaf (%) ([1]; K31-4-2, drug 110 nM) | Rate of emerging of true leaf (%) ([1]; K31-4-2, drug 330 nM) | Ratio of sensitivity [1, 6] | Rate of emerging of true leaf (%) [2, 7] | Rate of emerging of true leaf (%) [2, 8] | Rate of emerging of true leaf (%) [2, 9] | Rate of emerging of true leaf (%) [2, 10] | Rate of emerging of true leaf (%) [2, 11] | Rate of emerging of true leaf (%) [2, 12] | other results |
| --- | --- | --- | --- | --- | --- | --- | --- | --- | --- | --- | --- | --- | --- | --- | --- | --- | --- |
| COc1cc(OC)nc(Sc2cccc(Cl)c2C(=O)O)n1 [Pyrithiobac-sodium, pyrithiobac-sodium] | 3 | exhibited resistance |  |  |  |  |  |  |  |  |  |  |  |  |  |  | Rate of emerging of true leaf (%) ([2]; drug 1.3 nM, day 12 after seeding): 44%; Rate of emerging of true leaf (%) ([2]; drug 4.1 nM, day 12 after seeding): 44%; Rate of emerging of true leaf (%) ([2]; drug 12 nM, day 12 after seeding): 0%; Rate of emerging of true leaf (%) ([2]; drug 37 nM, day 12 after seeding): 0%; Rate of emerging of true leaf (%) ([2]; drug 110 nM, day 12 after seeding): 0%; Rate of emerging of true leaf (%) ([2]; drug 330 nM, day 12 after seeding): 0% |
| CCOC(=O)c1cnn(C)c1S(=O)(=O)NC(=O)Nc1nc(OC)cc(OC)n1 [Pyrazosulfuron-ethyl, pyrazosulfuron-ethyl] |  |  | exhibited resistance | 100% | 100% | 90% | 0% | 0% | 0% | >9 | 0% | 0% | 0% | 0% | 0% | 0% |  |
| CCc1cc(C)cc(CC)c1-c1c(OC(=O)C(C)(C)C)n2n(c1=O)CCOCC2 [Pinoxaden, pinoxaden] |  |  |  |  |  |  |  |  |  |  |  |  |  |  |  |  | Resistance of transformed rice to the drug ([3]; Table 4 and FIG. 25): exhibited resistance; Ratio of sensitivity ([3]; maximum drug concentration for CK ratio of 40% or more, K31-4-6-2 / wild-type rice): 10; CK ratio (%) ([3]; K31-4-6-2, drug 0.01 μM): 95%; CK ratio (%) ([3]; K31-4-6-2, drug 0.1 μM): 48%; CK ratio (%) ([3]; K31-4-6-2, drug 1 μM): 9%; CK ratio (%) ([3]; K31-4-6-2, drug 10 μM): 3%; CK ratio (%) ([4]; drug 0.01 μM): 59%; CK ratio (%) ([4]; drug 0.1 μM): 3%; CK ratio (%) ([4]; drug 1 μM): 3%; CK ratio (%) ([4]; drug 10 μM): 3% |
| COc1cc(OC)nc(NC(=O)NS(=O)(=O)c2ncccc2C(=O)N(C)C)n1 [Nicosulfuron, nicosulfuron] |  |  | exhibited resistance | 100% | 100% | 100% | 100% | 100% | 10% | 27 | 100% | 100% | 0% | 0% | 0% | 0% |  |
| CCCc1ccc2nc(Cl)c(S(=O)(=O)NC(=O)Nc3nc(OC)cc(OC)n3)n2n1 [Propyrisulfuron, propyrisulfuron] |  |  | exhibited resistance | 100% | 100% | 100% | 70% | 0% | 0% | >9 | 10% | 0% | 0% | 0% | 0% | 0% |  |
| COc1cc(OC)nc(NC(=O)NS(=O)(=O)N(C)S(C)(=O)=O)n1 [Amidosulfuron, amidosulfuron] | 3 | exhibited resistance |  |  |  |  |  |  |  |  | 100% | 100% | 0% | 0% | 0% | 0% |  |
| COc1cc(OC)nc(NC(=O)NS(=O)(=O)c2c(Cl)nc3ccccn23)n1 [Imazosulfuron, imazosulfuron] |  |  | exhibited resistance | 100% | 100% | 100% | 100% | 90% | 0% | >85 | 40% | 10% | 0% | 0% | 0% | 0% |  |
| COc1cnc(OC)n2nc(NS(=O)(=O)c3c(OCC(F)F)cccc3C(F)(F)F)nc12 [Penoxsulam, penoxsulam] | >254 | exhibited resistance |  |  |  |  |  |  |  |  | 50% | 10% | 0% | 0% | 0% | 0% |  |
| CON=C(C)c1cccc(Oc2nc(OC)cc(OC)n2)c1C(=O)O [Pyriminobac, pyriminobac] |  |  | exhibited resistance | 100% | 100% | 100% | 100% | 100% | 50% | 27 | 100% | 90% | 10% | 0% | 0% | 0% |  |
| COC(=O)c1ccccc1CS(=O)(=O)NC(=O)Nc1nc(OC)cc(OC)n1 [Bensulfuron-methyl, bensulfuron-methyl] | >28 | exhibited resistance |  |  |  |  |  |  |  |  | 30% | 0% | 0% | 0% | 0% | 0% |  |
